Test results taken from ChEMBL document CHEMBL1212933, “Alcoholysis of naturally occurring imides: misleading interpretation of antifungal activities” (J Nat Prod, 2010).
Values after ≈ are worked out from the molar mass of the structure shown.

Tests used:
[1] = test system: Penicillium griseofulvum; assay: Antifungal activity against Penicillium griseofulvum; assay type: functional, organism-based
[2] = test system: Cladosporium herbarum; assay: Antifungal activity against Cladosporium herbarum; assay type: functional, organism-based

CS/C=C/C(=O)N(C)C(=O)Cc1ccccc1 [PENIMIDE A]
EC50 [1]: 3 µg/mL (≈ 12 µM)
EC50 [2]: 0.9 µg/mL (≈ 3.61 µM)
